Read-outs that look alike come from different tables or passages of the source.
Columns and labels:
[1] = assay type: physicochemical
pharyngitis = conditions: ibuprofen 400 mg; meta-analysis; cited from earlier work
[2] = in vivo; cited from earlier work

CC(C)Cc1ccc(C(C)C(=O)O)cc1.O.O.[Na] (centres unmarked) [Sod, ibuprofen sodium dihydrate]
content of impurities compared among the salts ([1]; regardless of the long term temperature and humidity conditions): lowest content of impurities

ibuprofen lysinate
total content of impurities ([1]; T0, closed pill box): <0.1 percentage
total content of impurities ([1]; T1 month, 25° C., RH 60, closed pill box): 0.15 percentage
total content of impurities ([1]; T1 month, 40° C., RH 75, closed pill box): 0.19 percentage
total content of impurities ([1]; T1 month, 40° C., RH 75, open pill box): 0.53 percentage
total content of impurities ([1]; T2 months, 25° C., RH 60, closed pill box): 0.15 percentage
total content of impurities ([1]; T2 months, 40° C., RH 75, closed pill box): 0.21 percentage
total content of impurities ([1]; T2 months, 40° C., RH 75, open pill box): 2.21 percentage
total content of impurities ([1]; T3 months, 25° C., RH 60, closed pill box): 0.17 percentage
total content of impurities ([1]; T3 months, 40° C., RH 75, closed pill box): 0.27 percentage
total content of impurities ([1]; T3 months, 40° C., RH 75, open pill box): 3.10 percentage
total content of impurities ([1]; T15 d, 40° C., RH 75, closed pill box): 0.28 percentage

CC(C)Cc1ccc(C(C)C(=O)O)cc1 (centres unmarked) [ibuprofen, 2-(4-(2-methylpropyl)phenyl)propanoic acid]
pain relief in pharyngitis compared with acetaminophene (1000 mg, paracetamol) (pharyngitis): significant superiority

CC(C(=O)O)c1ccc(-c2ccccc2)c(F)c1 (centres unmarked) [flurbiprofen]
half-life [2]: 4 h
